Legend:
CRE, F-κB, or TGF-β = conditions: cited from earlier work
[1] = test system: E. faecalis (derived from ATCC ® 19433 ™); assay: Bacteriostasis, log reduction; assay type: cell-based; conditions: E. faecalis ATCC 19433
Procedure: (§1) In order to assess the log reduction capabilities of compounds of Formula (1), testing was performed on organisms that are found in acute and chronic wounds. Triplicate tubes were prepared for each bacteria using 50 μL of inoculum (about 1×10^6 CFU/mL) which was added to 450 μL of compound solution (compound of Formula (I)) (or 100 μL of inoculum in 900 μL of compound solution), resulting in a final inoculum of about 1×10^5 CFU/mL, as shown in Table 4.
(§2) Tubes were mixed with a vortex and then incubated in a shaking incubator at 175 RPM and 35° C. to 37° C.
(§3) Positive control in Tables 5a and 5b was 1 mL of 0.89% saline with 1 mL of the 1×10^6 CFU/mL of the organism.
(§4) For Compounds 1, 7, 8, 10, and 18 in Tables 6, 7-A, 7-B, 8, 9, 10-A, 10-B, and 11: The compound solutions were prepared with compound (30 mg), polysorbate 20 (1.6 mL), butylene glycol (1.6 mL), phosphatidyl choline (0.66 g), ethanol (1.6 mL), hydroxypropyl cellulose (0.26 g), and ultra pure water (24.9 mL).
(§5) XAV939 Control in Table X1 was XAV939 (30 mg), polysorbate 20 (1.6 mL), butylene glycol (1.6 mL), phosphatidyl choline (0.66 g), ethanol (1.6 mL), ultra pure water (24.9 mL), and hydroxypropyl cellulose (0.26 g).
(§6) GO-HA Control in Table X2 was GO-HA (30 mg), polysorbate 20 (1.6 mL), butylene glycol (1.6 mL), phosphatidyl choline (0.66 g), ethanol (1.6 mL), ultra pure water (24.9 mL), and hydroxypropyl cellulose (0.26 g).
(§7) For Compound 18+GO-HA in Tables 6 and X4: compound 18 (45 mg), GO-HA (45 mg), polysorbate 20 (2 mL), butylene glycol (2 mL), phosphotidyl choline (0.5 g), ethanol (2 mL), hydroxypropyl cellulose (0.40 g), and ultra pure water (40 mL).
(§8) For XAV939+GO-HA in Tables 6 and X3-A, and X3-B: XAV939 (45 mg), GO-HA (45 mg), butylene glycol (2 mL), polysorbate 20 (2 mL), phosphotidyl choline (0.5 g), ethanol (2 mL), hydroxypropyl cellulose (0.40 g), and ultra pure water (40 mL).
(§9) Testing was performed at two time points: 18 to 24 hours, and […].

[2] = test system: S. aureus (MRSA) (derived from ATCC ® 33593 ™); assay: Bacteriostasis, log reduction; assay type: cell-based; conditions: S. aureus (MRSA) ATCC 33593
Procedure: as §1, §2, §3, §4, §5, §6, §7, §8, §9

[3] = test system: S. aureus (derived from ATCC ® 6538 ™); assay: Bacteriostasis, log reduction; assay type: cell-based; conditions: S. aureus ATCC 6538
Procedure: as §1, §2, §3, §4, §5, §6, §7, §8, §9

[4] = test system: E. coli (derived from ATCC ® 8739 ™); assay: Bacteriostasis, log reduction; assay type: cell-based; conditions: E. coli ATCC 8739
Procedure: as §1, §2, §3, §4, §5, §6, §7, §8, §9

[5] = test system: S. epidermidis (derived from ATCC ® 14990 ™); assay: Bacteriostasis, log reduction; assay type: cell-based; conditions: S. epidermidis ATCC 14990
Procedure: as §1, §2, §3, §4, §5, §6, §7, §8, §9

[6] = test system: E. coli (derived from ATCC ® 25922 ™); assay: Bacteriostasis, log reduction; assay type: cell-based; conditions: E. coli ATCC 25922
Procedure: as §1, §2, §3, §4, §5, §6, §7, §8, §9

[7] = test system: P. aeruginosa (derived from ATCC ® 15442 ™); assay: Bacteriostasis, log reduction; assay type: cell-based; conditions: P. aeruginosa ATCC 15442
Procedure: as §1, §2, §3, §4, §5, §6, §7, §8, §9

TK 1 = conditions: cell-free assay; read-out: IC50, TK 1 inhibition; cited from earlier work
TK2 = conditions: cell-free assay; read-out: IC50, TK2 inhibition; cited from earlier work
[8] = test system: HEK293 SuperTOPFlash reporter cells, Wnt promoter; assay: HEK CELL Wnt Assay (luciferase reporter); assay type: cell-based; conditions: serial dilutions, with or without 50 ng/mL Wnt3a; 18 h
Procedure: In order to determine the effect of the compounds of Formula (I) on Wnt inhibition, an in vitro assay using HEK293 SuperTOPFlash reporter cells, with the Wnt promoter driving a luciferase reporter gene, were utilized. 40,000 HEK293 SuperTOPFlash reporter cells were seeded, per well, in a 48 well plate for 24 hours, prior to administration of serial dilutions of the compound of Formula (I) to individual wells. Serial dilutions ranging from […] to 1 nM of the compound of Formula (I) were added with or without 50 ng/mL Wnt3a (Time Biosciences) and allowed to incubate with the reporter cells for 18 hours. Reporter cells with no treatment were used as negative control.

wound = conditions: in a GO-HA matrix; cited from earlier work
[9] = cited from earlier work
ear punch wound = conditions: cited from earlier work

SMILES: Oc1nc(-c2ccc(C(F)(F)F)cc2)nc2c1CSCC2 [XAV939, reference compound]
- effect on CRE, F-κB, or TGF-β (CRE, F-κB, or TGF-β): does not affect CRE, F-κB, or TGF-β
- Average result ([1]; 24 h): 2.6 × 10^5
- Log Reduction ([1]; 24 h): No
- Log Value ([1]; 24 h): 5.4
- Average result ([1]; 72 h): 1.7 × 10^5
- Log Reduction ([1]; 72 h): No
- Log Value ([1]; 72 h): 5.1
- Average result ([2]; 24 h): 8.7 × 10^4
- Log Reduction ([2]; 24 h): No
- Log Value ([2]; 24 h): 4.9
- Average result ([2]; 72 h): <6.8 × 10^3
- Log Reduction ([2]; 72 h): >0.8
- Log Value ([2]; 72 h): <3.8
- Average result ([3]; 24 h): 2.5 × 10^3
- Log Reduction ([3]; 24 h): 1.9
- Log Value ([3]; 24 h): 3.4
- Average result ([3]; 72 h): 1.7 × 10^5
- Log Reduction ([3]; 72 h): 0.1
- Log Value ([3]; 72 h): 5.2
- Average result ([4]; 24 h): 2.7 × 10^3
- Log Reduction ([4]; 24 h): 1.9
- Log Value ([4]; 24 h): 3.4
- Average result ([4]; 72 h): <200
- Log Reduction ([4]; 72 h): >3.0
- Log Value ([4]; 72 h): <2.3
- Average result ([5]; 24 h): 5.5 × 10^4
- Log Reduction ([5]; 24 h): 0.1
- Log Value ([5]; 24 h): 4.7
- Average result ([5]; 72 h): <200
- Log Reduction ([5]; 72 h): >2.5
- Log Value ([5]; 72 h): <2.3
- Average result ([6]; 24 h): 2.8 × 10^4
- Log Reduction ([6]; 24 h): 1.0
- Log Value ([6]; 24 h): 4.4
- Average result ([6]; 72 h): <200
- Log Reduction ([6]; 72 h): >3.1
- Log Value ([6]; 72 h): <2.3
- Average result ([7]; 24 h): <200
- Log Reduction ([7]; 24 h): >3.1
- Log Value ([7]; 24 h): <2.3
- Average result ([7]; 72 h): <200
- Log Reduction ([7]; 72 h): >3.1
- Log Value ([7]; 72 h): <2.3
- IC50 (TK 1): 11 nM
- IC50 (TK2): 4 nM
- IC50 [8]: 50 nM
- quality of wound healing (wound): substantial improvement to the quality of wound healing
- solubility in water-based solutions [9]: poor solubility in water-based solutions
- aqueous solubility ([9]; water): < 1 µg/mL
- cartilage regeneration and healing (ear punch wound; 2 mm biopsy punch wound in cartilaginous region of C57B1/CJ mouse): increased cartilage regeneration and healing
- wound closure rate and fibrosis (ear punch wound; topical, mouse ear punch): significantly increased rate of wound closure with reduced fibrosis (scarring)

— US20260356860A1, “2-SUBSTITUTED 3,4A,5,7,8,8A-HEXAHYDRO-4H-THIOPYRANO[4,3-DJPYRIMIDIN-4-ONES FOR WOUND TREATMENT” (priority 2022, published 2026)
